Results taken from the supplement of paper PMC13380429.

What was measured:
Conditions in all cases: 72 h
U2OS [1] = test: drug sensitivity score (DSS) for viability; higher = more toxic; extreme values may be limits of the assay
Vero E6 [2] = test: as above
Calu-3 [3] = test: as above
HepG2 [4] = test: as above
Caco-2 [5] = test: as above
U2OS [6] = test: relative viability EC50 (midpoint between 100% and the lowest measured viability); higher = less toxic
Vero E6 [7] = test: as above
Calu-3 [8] = test: as above
Caco-2 [9] = test: as above
U2OS [10] = test: cell viability relative to DMSO; higher = less toxic
Vero E6 [11] = test: as above
Calu-3 [12] = test: as above
HepG2 [13] = test: as above
Caco-2 [14] = test: as above
HepG2 [15] = test: relative viability EC50 (midpoint between 100% and the lowest measured viability); higher = less toxic

Row | Compound | drug sensitivity score (U2OS [1]) | drug sensitivity score (Vero E6 [2]) | drug sensitivity score (Calu-3 [3]) | drug sensitivity score (HepG2 [4]) | drug sensitivity score (Caco-2 [5]) | relative viability EC50 (U2OS [6]) [µM] | relative viability EC50 (Vero E6 [7]) [µM] | relative viability EC50 (Calu-3 [8]) [µM] | relative viability EC50 (Caco-2 [9]) [µM] | cell viability (U2OS [10]; 1 nM) [%] | cell viability (U2OS [10]; 10 nM) [%] | cell viability (U2OS [10]; 100 nM) [%] | cell viability (U2OS [10]; 1000 nM) [%] | cell viability (U2OS [10]; 10000 nM) [%] | cell viability (Vero E6 [11]; 1 nM) [%] | cell viability (Vero E6 [11]; 10 nM) [%] | cell viability (Vero E6 [11]; 100 nM) [%] | cell viability (Vero E6 [11]; 1000 nM) [%] | cell viability (Vero E6 [11]; 10000 nM) [%] | cell viability (Calu-3 [12]; 1 nM) [%] | cell viability (Calu-3 [12]; 10 nM) [%] | cell viability (Calu-3 [12]; 100 nM) [%] | cell viability (Calu-3 [12]; 1000 nM) [%] | cell viability (Calu-3 [12]; 10000 nM) [%] | cell viability (HepG2 [13]; 1 nM) [%] | cell viability (HepG2 [13]; 10 nM) [%] | cell viability (HepG2 [13]; 100 nM) [%] | cell viability (HepG2 [13]; 1000 nM) [%] | cell viability (HepG2 [13]; 10000 nM) [%] | cell viability (Caco-2 [14]; 1 nM) [%] | cell viability (Caco-2 [14]; 10 nM) [%] | cell viability (Caco-2 [14]; 100 nM) [%] | cell viability (Caco-2 [14]; 1000 nM) [%] | cell viability (Caco-2 [14]; 10000 nM) [%] | relative viability EC50 (HepG2 [15]) [µM]
1 | Fc1ccc(C(OCCN2CCN(C/C=C/c3ccccc3)CC2)c2ccc(F)cc2)cc1 | 0 | 0.4 | 0 | 1.8 | 0.9 | > 10 | > 10 | > 10 | > 10 | 103 | 100 | 103 | 98.4 | 94.8 | 99.6 | 106 | 101 | 96 | 86.7 | 97.8 | 106 | 110 | 99.7 | 95.3 | 87.6 | 101 | 101 | 96.2 | 72.1 | 102 | 100 | 104 | 94.2 | 83.5 | –
2 | O=C(Nc1ccncc1)c1cc([N+](=O)[O-])ccc1Cl | 0 | 0.9 | – | 0 | 0 | > 10 | > 10 | – | > 10 | 99.5 | 104 | 99.7 | 106 | 93.2 | 102 | 97.3 | 89.4 | 88 | 93.1 | – | – | – | – | – | 103 | 91.3 | 105 | 86 | 99.4 | 102 | 86.1 | 97.9 | 96.3 | 85.5 | > 10
3 | Cc1sc2c(c1C)C(c1ccc(Cl)cc1)=N[C@@H](CC(=O)Nc1ccc(OCCOCCOCCOCCNc3cccc4c3C(=O)N(C3CCC(=O)NC3=O)C4=O)cc1)c1nnc(C)n1-2 (some centres not stated) [ARV-825] | 9.9 | 8.3 | 5 | 12.3 | 12 | 0.577 | 1.55 | – | 0.184 | 95.4 | 93.6 | 96.9 | 51 | 31.7 | 94.6 | 105 | 91 | 76.3 | 11 | 95.1 | 91.4 | 111 | 72 | 62.9 | 95.4 | 103 | 89.9 | 40.5 | 25.2 | 91.4 | 92.6 | 90.1 | 44 | 51.7 | 0.381
4 | CC1(C)C[C@@H]1C(=O)N/C(=C\CCCCSC[C@H](N)C(=O)O)C(=O)O [Cilastatin Sodium] | 0 | 0 | – | 0.9 | 0 | > 10 | > 10 | – | > 10 | 97.4 | 100 | 95.9 | 102 | 97.6 | 104 | 102 | 99.2 | 99.8 | 94.3 | – | – | – | – | – | 108 | 102 | 95.4 | 87.7 | 96.5 | 101 | 107 | 105 | 99 | 102 | > 10
5 | O=C1C=CC(=O)C2=C1C1c3ccccc3C2c2ccccc21 [INCA-6] | 0 | 0 | 0 | 1.1 | 0 | > 10 | > 10 | > 10 | > 10 | 98 | 93.7 | 98.2 | 97.5 | 88.2 | 93.3 | 96.7 | 87 | 96.1 | 105 | 98.2 | 99.3 | 96.7 | 95.7 | 104 | 102 | 112 | 96.8 | 106 | 68.5 | 97.5 | 93.5 | 94.5 | 96.6 | 90.1 | –
6 | Cc1nn(C)c2nc(NNC(=O)Nc3cc(Cl)nc(Cl)c3)cc(C(C)C)c12 [JTE-013] | 0 | 0 | 0 | 1.7 | 0.4 | > 10 | > 10 | > 10 | > 10 | 107 | 100 | 99.4 | 93.6 | 92.9 | 99.1 | 105 | 95.7 | 100 | 93.9 | 101 | 101 | 97.5 | 110 | 92 | 97.8 | 93.1 | 104 | 95.6 | 74.2 | 96.7 | 100 | 105 | 100 | 82.4 | –
7 | C[C@@H](NC(=O)c1ncnc(N)c1Cl)c1ncc(C(=O)Nc2cc(C(F)(F)F)c(Cl)cn2)s1 [MLN2480] | 0 | 0 | – | 3.5 | 0 | > 10 | > 10 | – | > 10 | 102 | 101 | 103 | 102 | 95.4 | 95.4 | 104 | 111 | 108 | 108 | – | – | – | – | – | 102 | 102 | 101 | 91.9 | 57 | 101 | 96.4 | 103 | 103 | 91.5 | –
8 | Cc1ccc(S(=O)(=O)Nc2ccc3c(c2)c(C(=O)C(F)(F)F)cn3CC(=O)N[C@@H](CC(C)C)C(=O)O)cc1 [NTRC-824] | 0 | 0 | 0 | – | 0 | > 10 | > 10 | > 10 | > 10 | 102 | 109 | 102 | 102 | 95.3 | 96.9 | 98.1 | 100 | 94.7 | 95.4 | 88.4 | 101 | 94.2 | 102 | 93.5 | – | – | – | – | – | 94.7 | 103 | 95 | 102 | 89.7 | –
